Converted amounts (≈) assume the structure as drawn.
How the values were obtained:
[1] = system: Staphylococcus epidermidis; assay: Antibacterial activity against Staphylococcus epidermidis 887E by M07-A9 CLSI method; assay type: functional
Escherichia coli = assay: Antibacterial activity against Escherichia coli ATCC 25922 by M07-A9 CLSI method; assay type: functional
Staphylococcus aureus [2] = assay: Antibacterial activity against Staphylococcus aureus ATCC 6538P by M07-A9 CLSI method; assay type: functional
Proteus vulgaris = assay: Antibacterial activity against Proteus vulgaris 6059 by M07-A9 CLSI method; assay type: functional
Staphylococcus aureus [3] = assay: Antibacterial activity against Staphylococcus aureus ATCC 25923 by M07-A9 CLSI method; assay type: functional
Salmonella typhimurium = assay: Antibacterial activity against Salmonella typhimurium ATCC 13311 by M07-A9 CLSI method; assay type: functional, Salmonella enterica subsp. enterica serovar Typhimurium; conditions: Salmonella enterica
Klebsiella aerogenes = assay: Antibacterial activity against Klebsiella aerogenes (SHV-1) 1976E by M07-A9 CLSI method; assay type: functional
Staphylococcus aureus [4] = assay: Antibacterial activity against Staphylococcus aureus 241 by M07-A9 CLSI method; assay type: functional
Staphylococcus aureus [5] = assay: Antibacterial activity against Staphylococcus aureus 77 by M07-A9 CLSI method; assay type: functional
Kocuria rhizophila = assay: Antibacterial activity against Micrococcus luteus ATCC 9341 by M07-A9 CLSI method; assay type: functional
Staphylococcus aureus [6] = assay: Antibacterial activity against Staphylococcus aureus Giorgio by M07-A9 CLSI method; assay type: functional
Pseudomonas aeruginosa = assay: Antibacterial activity against Pseudomonas aeruginosa 6065Y by M07-A9 CLSI method; assay type: functional
Klebsiella pneumoniae = assay: Antibacterial activity against Klebsiella pneumoniae 2011E by M07-A9 CLSI method; assay type: functional
Enterococcus faecalis = assay: Antibacterial activity against Enterococcus faecalis ATCC 29212 by M07-A9 CLSI method; assay type: functional
Bacillus subtilis = assay: Antibacterial activity against Bacillus subtilis ATCC 6633 by M07-A9 CLSI method; assay type: functional
Bacillus cereus = assay: Antibacterial activity against Bacillus cereus ATCC 27348 by M07-A9 CLSI method; assay type: functional
Bacillus licheniformis = assay: Antibacterial activity against Bacillus licheniformis EMR by M07-A9 CLSI method; assay type: functional

Structure (SMILES)	MIC [1] [µg/mL]	MIC (Escherichia coli) [µg/mL]	MIC (Staphylococcus aureus [2]) [µg/mL]	MIC (Proteus vulgaris) [µg/mL]	MIC (Staphylococcus aureus [3]) [µg/mL]	MIC (Salmonella typhimurium) [µg/mL]	MIC (Klebsiella aerogenes) [µg/mL]	MIC (Staphylococcus aureus [4]) [µg/mL]	MIC (Staphylococcus aureus [5]) [µg/mL]	MIC (Kocuria rhizophila) [µg/mL]	MIC (Staphylococcus aureus [6]) [µg/mL]	MIC (Pseudomonas aeruginosa) [µg/mL]	MIC (Klebsiella pneumoniae) [µg/mL]	MIC (Enterococcus faecalis) [µg/mL]	MIC (Bacillus subtilis) [µg/mL]	MIC (Bacillus cereus) [µg/mL]	MIC (Bacillus licheniformis) [µg/mL]
CC(C)CCC[C@@H](C)[C@H]1CC[C@H]2[C@@H]3C(=O)C[C@H]4C[C@H](NCCCn5ccnc5)CC[C@]4(C)[C@H]3CC[C@]12C	16 (≈ 31.4 µM)	> 32	8 (≈ 15.7 µM)	> 32	8 (≈ 15.7 µM)	> 32	> 32	32 (≈ 62.8 µM)	8 (≈ 15.7 µM)	8 (≈ 15.7 µM)	8 (≈ 15.7 µM)	> 32	> 32	32 (≈ 62.8 µM)	8 (≈ 15.7 µM)	16 (≈ 31.4 µM)	32 (≈ 62.8 µM)
CC(C)CCC[C@@H](C)[C@H]1CC[C@H]2[C@@H]3[C@H](NCCn4ccnc4)C[C@H]4C[C@H](NCCn5ccnc5)CC[C@]4(C)[C@H]3CC[C@]12C	16 (≈ 27.1 µM)	> 32	4 (≈ 6.77 µM)	> 32	8 (≈ 13.5 µM)	> 32	> 32	16 (≈ 27.1 µM)	4 (≈ 6.77 µM)	4 (≈ 6.77 µM)	4 (≈ 6.77 µM)	> 32	> 32	16 (≈ 27.1 µM)	8 (≈ 13.5 µM)	16 (≈ 27.1 µM)	32 (≈ 54.2 µM)
CC(C)CCC[C@@H](C)[C@H]1CC[C@H]2[C@@H]3C(=O)C[C@H]4C[C@H](NCCn5ccnc5)CC[C@]4(C)[C@H]3CC[C@]12C	16 (≈ 32.3 µM)	> 32	8 (≈ 16.1 µM)	> 32	8 (≈ 16.1 µM)	> 32	> 32	16 (≈ 32.3 µM)	> 32	8 (≈ 16.1 µM)	8 (≈ 16.1 µM)	> 32	> 32	8 (≈ 16.1 µM)	32 (≈ 64.5 µM)	32 (≈ 64.5 µM)	32 (≈ 64.5 µM)
CC(C)CCC[C@@H](C)[C@H]1CC[C@H]2[C@@H]3[C@H](NCCc4cnc[nH]4)C[C@H]4C[C@H](NCCc5cnc[nH]5)CC[C@]4(C)[C@H]3CC[C@]12C [3ALPHA,7ALPHA-BIS[2-(5-IMIDAZOLYL)ETHYL]AMINO-5ALPHA-CHOLESTANE]	8 (≈ 13.5 µM)	> 32	4 (≈ 6.77 µM)	> 32	8 (≈ 13.5 µM)	> 32	> 32	8 (≈ 13.5 µM)	8 (≈ 13.5 µM)	16 (≈ 27.1 µM)	8 (≈ 13.5 µM)	> 32	> 32	8 (≈ 13.5 µM)	> 32	32 (≈ 54.2 µM)	> 32
CC(C)CCC[C@@H](C)[C@H]1CC[C@H]2[C@@H]3C(=O)C[C@H]4C[C@H](NCCc5ccccn5)CC[C@]4(C)[C@H]3CC[C@]12C	16 (≈ 31.6 µM)	> 32	8 (≈ 15.8 µM)	> 32	8 (≈ 15.8 µM)	> 32	> 32	> 32	32 (≈ 63.1 µM)	32 (≈ 63.1 µM)	8 (≈ 15.8 µM)	> 32	> 32	16 (≈ 31.6 µM)	32 (≈ 63.1 µM)	> 32	32 (≈ 63.1 µM)
CN[C@H](CC(C)C)C(=O)N[C@H]1C(=O)N[C@@H](CC(N)=O)C(=O)N[C@H]2C(=O)N[C@H]3C(=O)N[C@H](C(=O)N[C@H](C(=O)O)c4cc(O)cc(O)c4-c4cc3ccc4O)[C@H](O)c3ccc(c(Cl)c3)Oc3cc2cc(c3O[C@@H]2O[C@H](CO)[C@@H](O)[C@H](O)[C@H]2O[C@H]2C[C@](C)(N)[C@H](O)[C@H](C)O2)Oc2ccc(cc2Cl)[C@H]1O [VANCOMYCIN]		> 32		> 32		> 32	> 32			1 (≈ 0.69 µM)		> 32	> 32	2 (≈ 1.38 µM)	2 (≈ 1.38 µM)	> 32	> 32
CC(C)CCC[C@@H](C)[C@H]1CC[C@H]2[C@@H]3C(=O)C[C@H]4C[C@H](NCCc5cnc[nH]5)CC[C@]4(C)[C@H]3CC[C@]12C	16 (≈ 32.3 µM)	> 32	8 (≈ 16.1 µM)	> 32	16 (≈ 32.3 µM)	> 32	> 32	32 (≈ 64.5 µM)	16 (≈ 32.3 µM)	16 (≈ 32.3 µM)	16 (≈ 32.3 µM)	> 32	> 32	16 (≈ 32.3 µM)	32 (≈ 64.5 µM)	32 (≈ 64.5 µM)	32 (≈ 64.5 µM)
Cc1onc(-c2ccccc2)c1C(=O)N[C@@H]1C(=O)N2[C@@H]1SC(C)(C)[C@@H]2C(=O)O [OXACILLIN]	> 32	> 32	0.25 (≈ 0.623 µM)	> 32	0.25 (≈ 0.623 µM)	> 32	> 32	> 32	4 (≈ 9.96 µM)	0.03 (≈ 0.0747 µM)	0.5 (≈ 1.25 µM)	> 32	> 32	32 (≈ 79.7 µM)	16 (≈ 39.9 µM)	> 32	> 32

Further compounds by falling MIC [1], results first:

MIC [1] [µg/mL]	MIC (Escherichia coli) [µg/mL]	MIC (Staphylococcus aureus [2]) [µg/mL]	MIC (Proteus vulgaris) [µg/mL]	MIC (Staphylococcus aureus [3]) [µg/mL]	MIC (Salmonella typhimurium) [µg/mL]	MIC (Klebsiella aerogenes) [µg/mL]	MIC (Staphylococcus aureus [4]) [µg/mL]	MIC (Staphylococcus aureus [5]) [µg/mL]	MIC (Kocuria rhizophila) [µg/mL]	MIC (Staphylococcus aureus [6]) [µg/mL]	MIC (Pseudomonas aeruginosa) [µg/mL]	MIC (Klebsiella pneumoniae) [µg/mL]	MIC (Enterococcus faecalis) [µg/mL]	MIC (Bacillus subtilis) [µg/mL]	MIC (Bacillus cereus) [µg/mL]	MIC (Bacillus licheniformis) [µg/mL]	Structure (SMILES)
8 (≈ 13.1 µM)	> 32	8 (≈ 13.1 µM)	> 32	8 (≈ 13.1 µM)	> 32	> 32	8 (≈ 13.1 µM)	16 (≈ 26.1 µM)	8 (≈ 13.1 µM)	8 (≈ 13.1 µM)	> 32	> 32	16 (≈ 26.1 µM)	8 (≈ 13.1 µM)	32 (≈ 52.2 µM)	8 (≈ 13.1 µM)	CC(C)CCC[C@@H](C)[C@H]1CC[C@H]2[C@@H]3[C@H](NCCc4ccccn4)C[C@H]4C[C@H](NCCc5ccccn5)CC[C@]4(C)[C@H]3CC[C@]12C
4 (≈ 6.46 µM)	> 32	2 (≈ 3.23 µM)	> 32	2 (≈ 3.23 µM)	> 32	> 32	4 (≈ 6.46 µM)	4 (≈ 6.46 µM)	4 (≈ 6.46 µM)	4 (≈ 6.46 µM)	> 32	> 32	4 (≈ 6.46 µM)	4 (≈ 6.46 µM)	8 (≈ 12.9 µM)	4 (≈ 6.46 µM)	CC(C)CCC[C@@H](C)[C@H]1CC[C@H]2[C@@H]3[C@H](NCCCn4ccnc4)C[C@H]4C[C@H](NCCCn5ccnc5)CC[C@]4(C)[C@H]3CC[C@]12C
4 (≈ 8.12 µM)	> 32	2 (≈ 4.06 µM)	> 32	4 (≈ 8.12 µM)	> 32	> 32	32 (≈ 64.9 µM)	32 (≈ 64.9 µM)	8 (≈ 16.2 µM)	4 (≈ 8.12 µM)	> 32	> 32	8 (≈ 16.2 µM)	4 (≈ 8.12 µM)	16 (≈ 32.5 µM)	32 (≈ 64.9 µM)	CC(C)CCC[C@@H](C)[C@H]1CC[C@H]2[C@@H]3C(=O)C[C@H]4C[C@H](NCc5ccccn5)CC[C@]4(C)[C@H]3CC[C@]12C
1 (≈ 1.71 µM)	> 32	2 (≈ 3.42 µM)	> 32	2 (≈ 3.42 µM)	> 32	> 32	2 (≈ 3.42 µM)	2 (≈ 3.42 µM)	2 (≈ 3.42 µM)	2 (≈ 3.42 µM)	> 32	> 32	4 (≈ 6.84 µM)	2 (≈ 3.42 µM)	8 (≈ 13.7 µM)	2 (≈ 3.42 µM)	CC(C)CCC[C@@H](C)[C@H]1CC[C@H]2[C@@H]3[C@H](NCc4ccccn4)C[C@H]4C[C@H](NCc5ccccn5)CC[C@]4(C)[C@H]3CC[C@]12C

Source: ChEMBL document CHEMBL2407054, “Synthesis and antimicrobial activity of imidazole and pyridine appended cholestane-based conjugates” (2013)
